Calls of active or inactive are those of the source. The calls are words filed in the database; no cut-off is given here.
How the values were obtained:
[1] = tested on: Human betaherpesvirus 5; experiment: Antiviral activity against human Cytomegalovirus infected in human ARPE-19 cells assessed as reduction in viral replication incubated for 13 days by Hoechst 33342 staining based microscopic analysis; type: functional, cell-based; settings: Human betaherpesvirus 5, ARPE-19, 312 h
[2] = Cytotoxicity against human MRC5 cells assessed as reduction in cell viability incubated for 6 days by Hoechst 33342 staining based microscopic analysis; settings: time 6 day
[3] = tested on: Human betaherpesvirus 5; experiment: Antiviral activity against human Cytomegalovirus infected in human MRC5 cells assessed as reduction in viral replication incubated for 6 days by Hoechst 33342 staining based microscopic analysis; type: functional, cell-based; settings: Human betaherpesvirus 5, MRC5, 144 h
[4] = Selectivity index, ratio of CC50 for human MRC5 cells to IC50 for human Cytomegalovirus infected in human ARPE-19 cells incubated for 13 days; type: toxicity, cell-based; settings: time 6 day, read-out: Ratio CC50/IC50
[5] = tested on: Human betaherpesvirus 5; experiment: Antiviral activity against human Cytomegalovirus infected in human ARPE-19 cells assessed as reduction in viral replication incubated for 12 days by Hoechst 33342 staining based microscopic analysis; type: functional, cell-based; settings: Human betaherpesvirus 5, ARPE-19, 288 h
[6] = Selectivity index, ratio of CC50 for human MRC5 cells to IC50 for human Cytomegalovirus infected in human MRC5 cells incubated for 6 days; type: toxicity, cell-based; settings: time 6 day, read-out: Ratio CC50/IC50
[7] = Drug uptake in rabbit RK13 cells incubated for 24 hrs by Hoechst staining based microscopic analysis; type: ADME, cell-based, Oryctolagus cuniculus; settings: rk13, 24 h
[8] = tested on: Human betaherpesvirus 5; experiment: Antiviral activity against human Cytomegalovirus infected in human ARPE-19 cells assessed as reduction in infection rate incubated for 10 days by Hoechst 33342 staining based microscopic analysis; type: functional, cell-based; settings: Human betaherpesvirus 5, ARPE-19, 240 h; read-out: IC50
[9] = tested on: Human betaherpesvirus 5; experiment: Antiviral activity against ganciclovir resistant Cytomegalovirus UL54 D301N infected in human MRC5 cells assessed as reduction in viral DNA replication incubated for 6 days by Hoechst 33342 staining based microscopic analysis; type: functional, cell-based; settings: time 6.0 day
[10] = tested on: Human betaherpesvirus 5; experiment: Antiviral activity against Human Cytomegalovirus infected in human MRC5 cells assessed as reduction in infection rate incubated for 6 days by Hoechst 33342 staining based microscopic analysis; type: functional, cell-based; settings: Human betaherpesvirus 5, MRC5, 144 h; read-out: IC50
[11] = Drug metabolism in human ARPE-19 cell culture at 10 uM incubated for 10 days; type: ADME; settings: arpe-19, 240 h, time 10 day
[12] = tested on: Human betaherpesvirus 5; experiment: Antiviral activity against letermovir resistant Cytomegalovirus UL56 R369G infected in human MRC5 cells assessed as reduction in infection rate at 600 nM incubated for 6 days by Hoechst 33342 staining based microscopic analysis; type: functional, cell-based; settings: time 6.0 day
[13] = Selectivity index, ratio of CC50 for human MRC5 cells to IC50 for human Cytomegalovirus infected in human ARPE-19 cells incubated for 10 days; type: toxicity, cell-based; settings: time 6 day, read-out: Ratio CC50/IC50
[14] = tested on: Human betaherpesvirus 5; experiment: Antiviral activity against ganciclovir resistant Cytomegalovirus UL54 D301N infected in human MRC5 cells assessed as reduction in infection rate incubated for 6 days by Hoechst 33342 staining based microscopic analysis; type: functional, cell-based; settings: time 6.0 day
[15] = Cytotoxicity against human ARPE-19 cells assessed as assessed as number of fluorescent nuclei incubated for 6 days by Hoechst 33342 staining based microscopic analysis; type: cell-based; settings: time 6 day
[16] = Selectivity index, ratio of CC50 for human MRC5 cells to IC50 for human Cytomegalovirus infected in human ARPE-19 cells incubated for 12 days; type: toxicity, cell-based; settings: time 6 day, read-out: Ratio CC50/IC50
[17] = tested on: Human betaherpesvirus 5; experiment: Antiviral activity against human Cytomegalovirus infected in human ARPE-19 cells assessed as reduction in infection rate incubated for 12 days by Hoechst 33342 staining based microscopic analysis; type: functional, cell-based; settings: Human betaherpesvirus 5, ARPE-19, 288 h
[18] = Cytotoxicity against human MRC5 cells assessed as assessed as number of fluorescent nuclei incubated for 6 days by Hoechst 33342 staining based microscopic analysis; type: cell-based; settings: time 6 day
[19] = tested on: Human betaherpesvirus 5; experiment: Antiviral activity against human Cytomegalovirus UL56 infected in human MRC5 cells assessed as reduction in infection rate incubated for 6 days by Hoechst 33342 staining based microscopic analysis; type: functional, cell-based; settings: Human betaherpesvirus 5, UL56, MRC5, 144 h
[20] = tested on: Human betaherpesvirus 5; experiment: Induction of viral absorption in human Cytomegalovirus harboring ANCHOR infected in human MRC-5 cells at 0.187 to 3 uM incubated for 18 hrs post infection by Hoechst 33342 staining based microscopic analysis; type: functional, organism-based; settings: MRC5, dose microM 0.187-3, time 18.0 hrs
[21] = tested on: Human betaherpesvirus 5; experiment: Antiviral activity against human Cytomegalovirus harboring ANCHOR assessed as reduction in infection rate incubated for 1 hr followed by cell line addition and measured after 24 hrs by Hoechst 33342 staining based microscopic analysis; type: functional; settings: ARPE-19, dose microM 0.187-3, time 25.0 hrs
[22] = tested on: Human betaherpesvirus 5; experiment: Virucidal activity against human Cytomegalovirus infected in APRE-19 cells at 0.187 to 3 uM preincubated for 1 hr with virus followed by cell line addition and measured after 24 hrs by Hoechst 33342 staining based microscopic analysis; type: functional; settings: ARPE-19, dose microM 0.187-3, time 25.0 hrs
[23] = tested on: Human betaherpesvirus 5; experiment: Antiviral activity against human Cytomegalovirus infected in human ARPE-19 cells assessed as reduction in viral DNA replication at 0.187-3 uM incubated for 18 hrs by Hoechst 33342 staining based microscopic analysis; type: functional, cell-based; settings: dose microM 0.187-3, time 18.0 hrs
[24] = tested on: Human betaherpesvirus 5; experiment: Antiviral activity against human Cytomegalovirus infected in human MRC5 cells assessed as reduction in infection rate at 0.187 to 3 uM preincubated for 1 hr with cells by Hoechst 33342 staining based microscopic analysis; type: functional, cell-based; settings: dose microM 0.187-3, time 1.0 hrs
[25] = tested on: Human betaherpesvirus 5; experiment: Antiviral activity against human Cytomegalovirus infected in human MRC5 cells assessed as reduction in viral infection rate at 0.75 uM incubated for 6 days by Hoechst 33342 staining based microscopic analysis; type: functional, cell-based; settings: time 6.0 day
[26] = tested on: Human betaherpesvirus 5; experiment: Antiviral activity against human Cytomegalovirus harboring ANCHOR assessed as reduction in viral DNA replication incubated for 1 hr followed by cell line addition and measured after 24 hrs by Hoechst 33342 staining based microscopic analysis; type: functional; settings: ARPE-19, dose microM 0.187-3, time 25.0 hrs
[27] = tested on: Human betaherpesvirus 5; experiment: Antiviral activity against human Cytomegalovirus infected in human MRC5 cells assessed as reduction in viral replication at 0.75 uM incubated for 6 days by Hoechst 33342 staining based microscopic analysis; type: functional, cell-based; settings: time 6.0 day
[28] = tested on: Human betaherpesvirus 5; experiment: Induction of viral entry in human Cytomegalovirus harboring ANCHOR infected in human ARPE-19 cells at 0.187 to 3 uM incubated for 18 hrs by Hoechst 33342 staining based microscopic analysis; type: functional, organism-based; settings: dose microM 0.187-3, time 18.0 hrs
[29] = tested on: Human betaherpesvirus 5; experiment: Induction of viral absorption in human Cytomegalovirus harboring ANCHOR infected in human ARPE-19 cells at 0.187 to 3 uM incubated for 18 hrs post infection by Hoechst 33342 staining based microscopic analysis; type: functional, organism-based; settings: dose microM 0.187-3, time 18.0 hrs
[30] = tested on: Human betaherpesvirus 5; experiment: Induction of viral entry in human Cytomegalovirus harboring ANCHOR infected in human MRC-5 cells at 0.187 to 3 uM incubated for 18 hrs by Hoechst 33342 staining based microscopic analysis; type: functional, organism-based; settings: MRC5, dose microM 0.187-3, time 18.0 hrs
[31] = tested on: Human betaherpesvirus 5; experiment: Virucidal activity against human Cytomegalovirus infected in MRC-5 cells at 0.187 to 3 uM preincubated for 1 hr with virus followed by cell line addition and measured after 24 hrs by Hoechst 33342 staining based microscopic analysis; type: functional; settings: MRC5, dose microM 0.187-3, time 25.0 hrs
[32] = tested on: Human betaherpesvirus 5; experiment: Antiviral activity against human Cytomegalovirus infected in human MRC5 cells assessed as reduction in infection rate at 0.187 to 3 uM treated 24 hrs after infection measured after 6 days by Hoechst 33342 staining based microscopic analysis; type: functional, cell-based; settings: dose microM 0.187-3, time 6.0 day
[33] = tested on: Human betaherpesvirus 5; experiment: Antiviral activity against Human cytomegalovirus harboring ANCHOR infected in ARPE-19 cells assessed as reduction in viral infection at 0.75 uM measured after 6 days by microscopic analysis relative to control; type: functional, cell-based; settings: time 6.0 day
[34] = tested on: Human betaherpesvirus 5; experiment: Antiviral activity against human Cytomegalovirus harboring ANCHOR infected in ARPE-19 cells assessed as reduction in viral DNA replication preincubated for 2 hrs with cells followed by infected with virus and measured after 24 hrs by Hoechst 33342 staining based microscopic analysis; type: functional, cell-based; settings: dose microM 0.187-3, time 26.0 hrs
[35] = tested on: Human betaherpesvirus 5; experiment: Antiviral activity against human Cytomegalovirus harboring ANCHOR infected in human ARPE-19 cells assessed as reduction in viral infection rate at 0.187 to 3 uM incubated for 18 hrs post infection by Hoechst 33342 staining based microscopic analysis; type: functional, cell-based; settings: dose microM 0.187-3, time 18.0 hrs
[36] = tested on: Human betaherpesvirus 5; experiment: Antiviral activity against human Cytomegalovirus infected in human ARPE-19 cells assessed as reduction in virus-induced cytopathic effect at 0.75 uM incubated for 10 days by Hoechst 33342 staining based microscopic analysis; type: functional, cell-based; settings: time 10.0 day
[37] = tested on: RK13; experiment: Effect on gB expression in human Cytomegalovirus harboring ANCHOR infected in rabbit RK13 cells assessed as reduction in replication at late phase by at 5 uM by immunofluorescence assay; type: functional, cell-based; settings: Human betaherpesvirus 5
[38] = tested on: Human betaherpesvirus 5; experiment: Antiviral activity against human Cytomegalovirus harboring ANCHOR infected in ARPE-19 cells assessed as reduction in infection rate preincubated for 2 hrs with cells followed by infected with virus and measured after 24 hrs by Hoechst 33342 staining based microscopic analysis; type: functional, cell-based; settings: dose microM 0.187-3, time 26.0 hrs

In the case of `Fc1ccc(F)c(-c2c3nc(c4ccc([nH]4)c(-c4c(F)ccc(F)c4F)c4ccc([nH]4)c(-c4c(F)ccc(F)c4F)c4ccc2[nH]4)C=C3)c1F`, the IC50 [1] is reported as 2300 nM, the CC50 at 144 h [2] is reported as greater than 50000 nM and the IC50 [3] is reported as 1800 nM. For the same compound, the selectivity ratio at 144 h [4] was greater than 21, the IC50 [5] was 2300 nM and the selectivity ratio at 144 h [6] was greater than 28.

For `Fc1cc(F)c(F)c(-c2c3nc(c4ccc([nH]4)c(-c4c(F)c(F)cc(F)c4F)c4ccc([nH]4)c(-c4c(F)c(F)c(F)c(F)c4F)c4ccc2[nH]4)C=C3)c1F`, the Drug uptake [7] was “Active”, the CC50 at 144 h [2] was 16200 nM and the IC50 [8] was 20 nM. The Activity [9] was “Active”, the IC50 [10] was 650 nM and the Drug metabolism [11] was “Metabolite_Notdetected”. For the same compound, the Activity [12] was “Active”, the selectivity ratio at 144 h [6] was 24.9 and the selectivity ratio at 144 h [13] was 416. For the same compound, the Activity [14] was “Active”.

`Fc1cc(F)c(F)c(-c2c3nc(c4ccc([nH]4)c(-c4c(F)c(F)cc(F)c4F)c4ccc([nH]4)c(-c4c(F)c(F)cc(F)c4F)c4ccc2[nH]4)C=C3)c1F` gave a CC50 at 144 h [15] of 22500 nM, a CC50 at 144 h [2] of 25300 nM and a selectivity ratio at 144 h [16] greater than 312. For the same compound, the IC50 [17] was 160 nM, the IC50 [10] was 1040 nM and the CC50 at 144 h [18] was 3400 nM. It also gave a selectivity ratio at 144 h [6] greater than 24.

With `COc1cccc(N2CCN(C3=Nc4c(F)cccc4[C@H](CC(=O)O)N3c3cc(C(F)(F)F)ccc3OC)CC2)c1` [LETERMOVIR] the IC50 [19] was 4 nM.

With `Fc1c(F)c(F)c(-c2c3nc(c4ccc([nH]4)c(-c4c(F)c(F)c(F)c(F)c4F)c4ccc([nH]4)c(-c4c(F)c(F)c(F)c(F)c4F)c4ccc2[nH]4)C=C3)c(F)c1F` the Activity [20] was “Dose-dependent effect”, the CC50 at 144 h [2] was 3270 nM and the Activity [21] was “Dose-dependent effect”. For the same compound, the Activity [22] was “inactive”, the Activity [23] was “Active” and the Activity [24] was “inactive”. The Activity [25] was “Active”, the Activity [26] was “Dose-dependent effect” and the Activity [27] was “Active”. The Activity [28] was “Active”, the Activity [29] was “Active” and the selectivity ratio at 144 h [16] was 27. For the same compound, the IC50 [17] was 960 nM, the Activity [30] was “Dose-dependent effect” and the Activity [31] was “inactive”. For the same compound, the Activity [32] was “Active”, the IC50 [10] was 1190 nM and the Activity [33] was “Active”. For the same compound, the selectivity ratio at 144 h [6] was 2.75, the Activity [34] was “inactive” and the Activity [35] was “inactive”. The Activity [36] was “Active”, the Activity [37] was “Active” and the Activity [38] was “inactive”.
